The results in this text go back to BindingDB's records for doi:10.1016/j.bmcl.2008.01.127 (Johnson & Johnson Pharmaceutical Research and Development, 2008).

The nature of this test: Antagonist activity at rabbit CXCR2 by neutrophil chemotaxis assay.
As to `N#Cc1ccc2[nH]c(-c3ccc(F)cc3)c(CCCC(=O)NS(=O)(=O)C(F)(F)F)c2c1` [4-(5-cyano-2-(4-fluorophenyl)-1H-indol-3-yl)-N-(trifluoromethylsulfonyl)butanamide], half-maximal inhibition (IC50) required 3000 nM.

In the case of `CS(=O)(=O)NC(=O)NCCc1c(-c2ccc(F)cc2)[nH]c2ccc(Br)cc12` [1-(2-(5-bromo-2-(4-fluorophenyl)-1H-indol-3-yl)ethyl)-3-(methylsulfonyl)urea], 5800 nM corresponded to half-maximal inhibition (IC50).

As to `CN(C)S(=O)(=O)NC(=O)CCCc1c(-c2ccc(F)cc2)[nH]c2ccc(C#N)cc12` [4-[5-cyano-2-(4-fluorophenyl)-1H-indol-3-yl]-N-(dimethylsulfamoyl)butanamide], the IC50 was determined as 700 nM.

`CNS(=O)(=O)NC(=O)CCCc1c(-c2ccc(F)cc2)[nH]c2ccc(C#N)cc12` [4-[5-cyano-2-(4-fluorophenyl)-1H-indol-3-yl]-N-[(methylamino)sulfonyl]butanamide] came in with an IC50 of 1300 nM.

As to `O=C(NCCc1c(-c2ccc(F)cc2)[nH]c2ccc(Br)cc12)NS(=O)(=O)c1ccccc1` [1-(2-(5-bromo-2-(4-fluorophenyl)-1H-indol-3-yl)ethyl)-3-(phenylsulfonyl)urea], half-maximal inhibition (IC50) was put at 1700 nM.

As for `CS(=O)(=O)NC(=O)CCCc1c(-c2ccc(F)cc2)[nH]c2ccc(C#N)cc12` [4-(5-cyano-2-(4-fluorophenyl)-1H-indol-3-yl)-N-(methylsulfonyl)butanamide], the IC50 was determined as 2100 nM.

A word on the IC50: it is the concentration needed to halve the response being measured. Low readings indicate greater potency in that assay, high ones weaker potency in that assay.
